The text below walks through data of patent EP0454444A1, “Glutarimide derivatives and herbicides” (NISSAN CHEMICAL INDUSTRIES LTD., priority 1990, dated 1991).

What all share (assay): Herbicidal effect test by soil treatment
Common to all, as to format: in vivo

One data set concerns soybean (Glysine max). Conditions: crop plant, application amount 1.6 g/a, three weeks after spraying. Put shortly: (§1)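 Growth control rate, calculated from top fresh weights of treated and non-treated plants, is graded against fixed judgement criteria three weeks after treatment. Treatment is an even spray of diluted wettable powder, emulsifiable concentrate or flowable onto soil over freshly sown seeds.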

Data set [1] relates to barnyardgrass (Echinochloa crusgalli). The conditions noted are these: application amount 1.6 g/a, three weeks after spraying. The method in brief: as §1
The test system of another data set is rice (Oryza sativa). Conditions: crop plant, application amount 1.6 g/a, three weeks after spraying. Put shortly:
as §1

In data set [2] the test system is annual sedge (Cyperus microiria). The conditions noted are these: application amount 1.6 g/a, three weeks after spraying. The method in brief: as §1
Data set [3] deals with large crabgrass (Digitaria adscendens). The conditions noted are these: application amount 1.6 g/a, three weeks after spraying. The method in brief:
as §1

The test system of data set [4] is hairly galinosoga (Galinsoga ciliat). The conditions noted are these: application amount 1.6 g/a, three weeks after spraying. The method in brief: as §1
The subject of data set [5] is rorippa ssp. (Rorippa atrovirens). Conditions: application amount 1.6 g/a, three weeks after spraying. The method in brief: as §1
Data set [6] has as its system cotton (Gossypium herbaceum). Conditions: crop plant, application amount 1.6 g/a, three weeks after spraying. The method in brief: as §1
Data set [7] relates to wheat (Triticum aestivum). Conditions: crop plant, application amount 1.6 g/a, three weeks after spraying. Put shortly:
as §1

In another data set the test system is corn (Zea mays). The conditions noted are these: crop plant, application amount 1.6 g/a, three weeks after spraying. Put shortly:
as §1

For data set [8], the system named is black nightshade (Solanum nigrum L.). The conditions noted are these: application amount 1.6 g/a, three weeks after spraying. Put shortly: as §1

With `CC(C)OC(=O)c1cc(N2C(=O)CC(C(C)C)C(C)C2=O)c(F)cc1Cl` (centres unmarked) [1-5], the “herbicidal effect, S (Glysine max)” value with soybean (Glysine max) is given as 0 (Growth control rates of less than 5% (substantially no effect)). Besides, in data set [1], the “herbicidal effect, N (Echinochloa crusgalli)” value is listed as 4 (Growth control rates of 70 to 90%). The “herbicidal effect, R (Oryza sativa)” value in the data set with rice (Oryza sativa) is recorded as 1 (Growth control rates of 5 to 20%). Further, in data set [2], the “herbicidal effect, K (Cyperus microiria)” value was 5 (Growth control,rates of more than 90% (almost completely withered)). In [3], the “herbicidal effect, M (Digitaria adscendens)” value is given as 5 (Growth control,rates of more than 90% (almost completely withered)). Further, in data set [4], the “herbicidal effect, D (Galinsoga ciliat)” value is given as 5 (Growth control,rates of more than 90% (almost completely withered)). For the same molecule, in data set [5], the “herbicidal effect, I (Rorippa indica)” value is recorded as 5 (Growth control,rates of more than 90% (almost completely withered)). The “herbicidal effect, C (Gossypium herbaceum)” value in data set [6] is 0 (Growth control rates of less than 5% (substantially no effect)). The “herbicidal effect, W (Triticum vulgare)” value in data set [7] is listed as 1 (Growth control rates of 5 to 20%). The “herbicidal effect, T (Zea mays)” value in the data set with corn (Zea mays) is given as 0 (Growth control rates of less than 5% (substantially no effect)). Moreover, in [8], the “herbicidal effect, H (Solanum nigrum L.)” value is recorded as 5 (Growth control,rates of more than 90% (almost completely withered)).
